“And” between values parts separate entries of the source, which are not always exact repeats. Equal entries are not always repeated.
Key:
[1] = molecular target: T1, LapD (LapD-sfGFP, full-length), with LapG (Pseudomonas fluorescens, UniProt Q3KK31); test: UV cross-linking of LapG-V205pAzF to LapD-sfGFP, in-gel fluorescence; assay type: binding; conditions: 2 μM LapD-sfGFP, 1 μM LapG, 2.5 mM CaCl2, pH 7.5, room temperature; detergent-solubilized; concentration range of sharp transition, not an EC50
T1 construct: full-length transmembrane LapD with C-terminal TEV site-sfGFP-His6, E. coli, detergent-solubilized (LMNG/CHAPS); LapG without signal peptide carrying para-azidophenylalanine at V205, sfGFP cut off; with Periplasmic cysteine protease LapG
T1 sequence (Q3KK31 1-648): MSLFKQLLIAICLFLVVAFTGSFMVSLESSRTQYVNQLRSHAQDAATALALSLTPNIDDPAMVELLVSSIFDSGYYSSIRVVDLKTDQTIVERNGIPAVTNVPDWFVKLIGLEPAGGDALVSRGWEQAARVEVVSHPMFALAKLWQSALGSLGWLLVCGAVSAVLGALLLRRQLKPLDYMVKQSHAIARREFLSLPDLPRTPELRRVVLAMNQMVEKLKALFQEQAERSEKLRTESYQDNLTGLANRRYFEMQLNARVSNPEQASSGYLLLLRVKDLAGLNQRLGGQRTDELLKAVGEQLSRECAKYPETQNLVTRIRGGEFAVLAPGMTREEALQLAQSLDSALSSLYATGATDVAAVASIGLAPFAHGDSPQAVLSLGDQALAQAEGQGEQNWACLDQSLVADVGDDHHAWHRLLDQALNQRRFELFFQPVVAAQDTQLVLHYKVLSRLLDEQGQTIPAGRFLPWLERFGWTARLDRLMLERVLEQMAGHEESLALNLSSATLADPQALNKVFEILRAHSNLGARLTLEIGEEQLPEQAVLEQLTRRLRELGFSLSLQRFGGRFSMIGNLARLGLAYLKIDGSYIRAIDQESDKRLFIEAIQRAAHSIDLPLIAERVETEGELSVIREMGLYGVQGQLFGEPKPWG
T1 sequence (Q3KK32 50-251 partner): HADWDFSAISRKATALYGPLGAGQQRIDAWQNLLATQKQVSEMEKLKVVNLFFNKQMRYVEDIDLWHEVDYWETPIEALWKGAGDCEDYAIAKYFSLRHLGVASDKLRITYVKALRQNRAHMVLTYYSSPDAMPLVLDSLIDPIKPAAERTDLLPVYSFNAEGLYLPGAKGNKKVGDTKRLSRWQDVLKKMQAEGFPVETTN

[2] = molecular target: full-length P. fluorescens LapD fused C-terminally to superfolder GFP (LapD-sfGFP), wild type (P. fluorescens) (UniProt Q3KK31); test: cross-linking

| Compound | switch in LapG cross-linking [1] [µM] | other (LapG:LapD molar ratio) [2] |
| --- | --- | --- |
| Nc1nc2c(ncn2[C@@H]2O[C@@H]3COP(=O)(O)O[C@H]4[C@@H](O)[C@H](n5cnc6c(=O)[nH]c(N)nc65)O[C@@H]4COP(=O)(O)O[C@H]3[C@H]2O)c(=O)[nH]1 [c-di-GMP] | 0.75 to 1 |  |
| non-fluorescent P. fluorescens LapG with pAzF at Y206 (enzyme) |  | 0.3 and 0.5 |

Reference: publication PMC4359373, “Mechanistic insight into the conserved allosteric regulation of periplasmic proteolysis by the signaling molecule cyclic-di-GMP” (eLife, 2014)
